# Experimental data published in ChEMBL document CHEMBL3430912, “GSK Tres Cantos Anti-Kinetoplastid Screening (TCAKS) Data”.
# How the values were obtained:
# Leishmania donovani [1] = assay: GSK_TCAKS: pIC50 Leishmania donovani viability assay using fluorescence intensity. Assay plates (1536-well) were prepared by adding 30nL per well of compound. For single shot assay, the final compound concentration was 5uM. […] Briefly, eGFP LdBOB axenic amastigotes were harvested, fixed and counted in a CASY cell counter (Roche-Applied Science). A final concentration of 1.5 * 10^5 cells per well were prepared in amastigote media containing 500 U/mL penicillin/streptomycin (Invitrogen) and 6uL was dispensed to each experimental well using a Multidrop Combi dispenser (Thermo Scientific). 6uL of assay media was dispensed to control columns used as reference for 100% compound response. Following incubation for 72 h at 37C, 5% CO2, 2 uL of resazurin was added to each well at a final concentration of 0.5 mM in phosphate buffered saline (PBS) with IGEPAL (Sigma-Aldrich), 0.05% (v/v).; type: functional, organism-based
# Trypanosoma cruzi [2] = assay: (§1) GSK_TCAKS: pIC50 H2C9 Imaging: H9c2 Host Cardiomyocytes. […] Cells were then washed once with PBS before infection. T. cruzi trypomastigotes, collected at days 5 to 8 after infection from LLC-MK2 parasite infected cultures, were allowed to swim out for 4h at 37C from a centrifuged pellet (2,500 rpm/10 min/room temperature). Trypomastigotes were then collected and counted in a CASY Cell Counter. Trypomastigotes, in supplemented DMEM, were added to H9c2 cultures in a multiplicity of infection of 1 and incubated for 18 h. Cells were washed once with PBS before incubation of the infected H9c2 monolayer with trypsin (Life-Technologies) to detach cells from the flask. Cells were counted in a CASY Cell Counter using a 150 um capillary and their density set at 5 * 10^4 cells per mL in supplemented assay DMEM. Infected H9c2 were dispensed into 384-well poly-lysine coated assay plates at 50uL per well using a Multidrop Combi dispenser. After seeding them, the plates were incubated at 37C, 5% CO2 for 72h. Cultures were then fixed and stained by addition of 50 uL of a solution containing 8% formaldehyde and 4 uM DRAQ5 DNA dye (BioStatus, UK) per well. […] Five images were collected per well for reliable statistical analysis. Automated image analysis was performed with a script developed on Acapella High Content Imaging and Analysis Software (PerkinElmer). Output: Number of H9c2 Host Cardiomyocytes nuclei to determine drug-related cytotoxicity.; type: functional, organism-based, Rattus norvegicus; conditions: H9c2, 4 h
# [3] = GSK_TCAKS: pIC50 HepG2 human cell line viability assay using luminiscence. […] Seeding density was checked to ensure that new mono-layers were not more than 50% confluent at the time of harvesting. Cell suspension was added to 500 mL of the same medium at a final density of 1.2 * 10^5 cells/mL. This cell suspension was dispensed (25 uL, 3000 cells per well) into 384-well clear-bottom plates using a Multidrop Combi dispenser. Prior to addition of the cell suspension, the screening compounds (250 nL) were pre-dispensed into the plates with an Echo liquid handler. Plates were incubated for 48 h at 37C, 5% CO2. After incubation, plates equilibrated at room temperature for 30 min before proceeding to develop the luminescent signal. The signal developer, CellTiter-Glo Reagent, was allowed to equilibrate at room temperature for 30 min and added to the plates (25uL per well) using a Multidrop Combi dispenser. Plates were left for 10 min at room temperature for stabilization and then read using a ViewLux.; type: toxicity, cell-based
# [4] = target: Sterol 14-alpha demethylase (Trypanosoma cruzi (strain CL Brener), UniProt Q7Z1V1); assay: GSK_TCAKS: pIC50 CYP51 from Trypanosoma cruzi.; type: functional
# Chain of Sterol 14-alpha demethylase (Q7Z1V1 whole entry): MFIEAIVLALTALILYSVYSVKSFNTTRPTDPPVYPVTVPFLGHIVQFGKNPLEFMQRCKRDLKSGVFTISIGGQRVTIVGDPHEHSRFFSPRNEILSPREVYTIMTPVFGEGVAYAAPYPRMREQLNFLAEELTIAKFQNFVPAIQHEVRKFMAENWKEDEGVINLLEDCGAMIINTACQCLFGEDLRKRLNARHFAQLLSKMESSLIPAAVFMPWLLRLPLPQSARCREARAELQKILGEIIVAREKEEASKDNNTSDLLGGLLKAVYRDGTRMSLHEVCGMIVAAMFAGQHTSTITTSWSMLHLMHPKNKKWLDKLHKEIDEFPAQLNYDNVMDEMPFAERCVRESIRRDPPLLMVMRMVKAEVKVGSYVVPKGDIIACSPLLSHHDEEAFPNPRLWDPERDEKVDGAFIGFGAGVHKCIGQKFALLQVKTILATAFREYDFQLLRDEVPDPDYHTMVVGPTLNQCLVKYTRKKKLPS
# [5] = tested on: Trypanosoma brucei brucei; assay: GSK_TCAKS: pIC50 Trypanosoma brucei viability assay using luminiscence. Assay plates (1536-well) were prepared. T. brucei cultures were harvested and counted in a CASY cell counter. A parasite suspension was prepared at a final concentration of 5 * 10^4 cells/mL in complete HMI9 medium and 6uL was dispensed to all wells containing compounds using a Multidrop Combi dispenser. 6uL of HMI9 media with 0.4% DMSO were dispensed to control columns. Plates were incubated for 24 h at 37C, 5% CO2 then tempered for 10 min at room temperature. ATP content was quantified by adding 4 uL of CellTiter-Glo Reagent (Promega) according to the manufacturer's instructions. Luminescence was measured using a ViewLux.; type: functional, organism-based; conditions: Lister 427, CASY
# [6] = tested on: Trypanosoma brucei brucei; assay: GSK_TCAKS: pIC50 Trypanosoma brucei viability assay using fluorescence intensity. Assay plates (1536-well) were prepared by dispensing 25nL of compound solution per well using an Echo acoustic dispenser (Labcyte).; type: functional, organism-based; conditions: Lister 427, 2 h
# Leishmania donovani [7] = assay: GSK_TCAKS: pIC50 Leishmania donovani Imaging: Infected Macrophages. Assay plates (384-well) were prepared by adding 250nL of compound to each well. For single shot assay, the final compound concentration was 5 uM. […] Automated image analysis was performed with a script developed on Acapella High Content Imaging and Analysis Software (PerkinElmer). Output: Percent of infected macrophage cells were reported for each well.; type: functional, organism-based, Homo sapiens; conditions: THP-1
# Trypanosoma cruzi [8] = assay: GSK_TCAKS: pIC50 Trypanosoma cruzi viability assay using beta-GAL activity. This assay was run at single shot at 5uM compound concentration per well. The biological reagents consisted of NIH-3T3 host cells and trypomastigotes parasitic cells; both cell types were set to a 3.3 * 10^5 cells/mL dilution in assay DMEM by means of a CASY cell counter device using a 60um capillary. 6 uL of the mixture were dispensed per well (about 1 * 10^3 host-cells and 1 * 10^3 parasites) with a Multidrop Combi dispenser. […] In all wells, the percentage of DMSO never exceeded 0.5%. Plates incubated for four days at 37C, 5% CO2. The substrate used for the assay fluorescence intensity (FLINT) readout was resorufin-beta-D-galactopiranoside (Sigma-Aldrich) at 5uM per well. It was diluted in PBS supplemented with the soft detergent Igepal (Fluka).; type: functional, organism-based, Mus musculus; conditions: Tulahuen, NIH3T3
# Leishmania donovani [9] = assay: GSK_TCAKS: pIC50 Leishmania donovani Imaging: Amastigotes/Macrophages. Assay plates (384-well) were prepared by adding 250nL of compound to each well. For single shot assay, the final compound concentration was 5 uM. […] Automated image analysis was performed with a script developed on Acapella High Content Imaging and Analysis Software (PerkinElmer). Output: Average number of amastigotes per macrophage cell were reported for each well.; type: functional, organism-based, Homo sapiens; conditions: THP-1
# Trypanosoma cruzi [10] = assay: as §1, with “Trypanosoma cruzi” for “H2C9”, “Amastigotes/Cell.” for “H9c2 Host Cardiomyocytes.”, “number” for “Number”, “amastigotes per cell as infection level measurement.” for “H9c2 Host Cardiomyocytes nuclei to determine drug-related cytotoxicity.”; type: functional, organism-based, Rattus norvegicus; conditions: H9c2, 4 h
# Leishmania donovani [11] = assay: GSK_TCAKS: pIC50 Leishmania donovani Imaging: THP-1 Host Macrophages. Assay plates (384-well) were prepared by adding 250nL of compound to each well. For single shot assay, the final compound concentration was 5 uM. […] Automated image analysis was performed with a script developed on Acapella High Content Imaging and Analysis Software (PerkinElmer). Output: THP-1 cell count were reported for each well.; type: functional, organism-based, Homo sapiens
# Trypanosoma cruzi [12] = assay: as §1, with “Trypanosoma cruzi” for “H2C9”, “Infected Cells.” for “H9c2 Host Cardiomyocytes.”, “percentage” for “Number”, “infected cells per well as a second infection marker.” for “H9c2 Host Cardiomyocytes nuclei to determine drug-related cytotoxicity.”; type: functional, organism-based, Rattus norvegicus; conditions: H9c2, 4 h
Compound,IC50 (Leishmania donovani [1]) [µM],IC50 (Trypanosoma cruzi [2]) [µM],IC50 at 48 h [3] [µM],IC50 [4] [µM],IC50 [5] [µM],IC50 [6] [µM],IC50 (Leishmania donovani [7]) [µM],IC50 (Trypanosoma cruzi [8]) [µM],IC50 (Leishmania donovani [9]) [µM],IC50 (Trypanosoma cruzi [10]) [µM],IC50 (Leishmania donovani [11]) [µM],IC50 (Trypanosoma cruzi [12]) [µM]
COc1cccc(NS(=O)(=O)c2ccc3ncc(C(=O)NCCC(C)C)c(O)c3c2)c1,> 50.1,12.6,31.6,6.31,0.631,0.316,> 50.1,> 50.1,> 50.1,15.8,> 50.1,31.6
O=C(Nc1cccc(Cl)c1)Nc1ccc([N+](=O)[O-])cc1Cl,6.31,3.98,31.6,5.01,3.16,2.51,3.16,1.26,2,1.58,25.1,2
NCC(Cc1ccccc1)NC(=O)c1cnc(-c2c[nH]c3ncccc23)s1 (configuration not stated),> 50.1,0.631,79.4,1,1,0.398,15.8,2,12.6,20,6.31,> 50.1
Cc1ccc(NC(=O)c2ccnc(N3CCCC3)c2)cc1-c1cc(C(N)=O)ccc1C,25.1,> 50.1,> 100,3.98,0.251,0.1,39.8,6.31,25.1,3.16,31.6,10
Cc1nnc(-c2nc(NCc3ccc(Cl)cc3)c3cccnc3c2O)[nH]1,2,25.1,15.8,15.8,0.794,0.631,0.501,0.631,0.501,1.26,6.31,0.794
CC(=O)Nc1ccc(-c2cnc(N)c(-c3nc4ccc(F)cc4[nH]3)c2)cc1,6.31,0.794,10,63.1,2,0.631,1,0.631,0.501,> 50.1,7.94,> 50.1
Cc1ccc(NC(=O)c2ccnc(N3CCCC3)c2)cc1-c1ccsc1C(N)=O,> 50.1,> 50.1,> 100,1.26,0.0631,0.0631,> 50.1,12.6,> 50.1,7.94,> 50.1,12.6
Cc1nc(-c2ccc3c(c2)OCO3)sc1C(=O)NCc1ccc2c(c1)OCO2,2,> 50.1,> 100,5.01,> 39.8,10,0.251,3.55,0.794,0.501,> 50.1,0.794
Cc1cc(C)n(-c2nc(NC(C)(C)C)nc(N3CCOCC3)n2)n1,6.31,1.26,100,> 100,3.98,12.6,7.94,5.01,3.98,3.16,> 50.1,10
CN1C(=O)c2ccccc2Sc2ccc(NC(=O)NCc3ccco3)cc21,> 50.1,25.1,> 100,31.6,0.501,0.398,> 50.1,10,25.1,6.31,> 50.1,12.6
CC(=O)Nc1ccc(-c2ccnc(Nc3cccc(C#N)c3)n2)cc1,39.8,12.6,> 100,25.1,0.794,0.631,15.8,6.31,10,3.16,10,6.31
